From patent publication US4282375A, “Halogenated-naphthalenetriyltris(sulfonylimino)-aryl multicarboxylic acids and salts thereof” (priority 1979, dated 1981)
Where two headings read alike, the source gives them in different places.

Legend:
shunt pathway = test: Test Code 036 (C-Shunt inhibitor), lysis of fragile human erythrocytes in autologous serum, cobra venom factor activated; assay type: cell-based; settings: serial twofold dilution assay; higher well number indicates higher activity
From the text: (§1) An active inhibitor protects C2 from C1 and C4; (ii) Test Code 035 (C3-C9 inhibitor)--This test determines the ability of the late components of human complement (C3-C9) to lyse EAC 142 in the presence of approriate dilutions of the test compound. An active inhibitor protects EAC 142 from lysis by human C3-C9; (iii) Test Code 036 (C-Shunt inhibitor)--In this test human erythrocytes rendered fragile are lysed in autologous serum via the shunt pathway activated by cobra venom factor in the presence of appropriate dilutions of the test compound. Inhibition of the shunt pathway results in failure of lysis; (iv) Forssman Vasculitis Test--Here, the well known complement dependent lesion, Forssman vasculitis, is produced in guinea pigs by intradermal injection of rabbit anti-Forssman antiserum. […] Percent inhibition is calculated by comparison with simultaneous controls. […]

[1] = system: complement activity of serum; test: Guinea Pig Intraperitoneal Test (GPIP), serum complement activity; assay type: in vivo; settings: Cavia porcellus, ip, 200 mg./kg. i.p.
From the text: An active inhibitor protects C2 from C1 and C4; (ii) Test Code 035 (C3-C9 inhibitor)--This test determines the ability of the late components of human complement (C3-C9) to lyse EAC 142 in the presence of approriate dilutions of the test compound. An active inhibitor protects EAC 142 from lysis by human C3-C9; (iii) Test Code 036 (C-Shunt inhibitor)--In this test human erythrocytes rendered fragile are lysed in autologous serum via the shunt pathway activated by cobra venom factor in the presence of appropriate dilutions of the test compound. Inhibition of the shunt pathway results in failure of lysis; (iv) Forssman Vasculitis Test--Here, the well known complement dependent lesion, Forssman vasculitis, is produced in guinea pigs by intradermal injection of rabbit anti-Forssman antiserum. The lesion is measured in terms of diameter, edema and hemorrhage and the extent to which a combined index of these is inhibited by prior intraperitoneal injection of the test compound at 200 mg./kg. is then reported, unless otherwise stated; (v) Forssman Shock Test--Lethal shock is produced in guinea pigs by an i.v. injection of anti-Forssman antiserum and the haromic mean death time of treated guinea pigs is compared with that of simultaneous controls; (vi) Complement Level Reduction Test--In this test, the above dosed guinea pigs, or others, are bled for serum and the complement level is determined in undiluted serum by the capillary tube method of U.S. Pat. No. 3,876,376 and compared to undosed control guinea pigs; (vii) Cap 50 Test--Here, appropriate amounts of the test compound are added to a pool of guinea pig serum in vitro, after which the undiluted serum capillary tube assay referred to above is run. The concentration of compound inhibiting 50% is reported; (viii) Guinea Pig Intraperitoneal Test (GPIP)--Guinea Pigs weighing about 300 g. are dosed intraperitoneally (i.p.) with 200 mg./kg. of the test compound dissolved in saline and adjusted to pH 7-8. […] Percent inhibition is calculated by comparison with simultaneous controls. […]

[2] = system: late components of human complement (C3-C9); test: Test Code 035 (C3-C9 inhibitor), lysis of EAC 142; assay type: biochemical; settings: serial twofold dilution assay; higher well number indicates higher activity
From the text: as §1

activated human C1 = activated human C1 (Homo sapiens, UniProt P09871); test: Test Code 026 (C1 inhibitor); assay type: biochemical; settings: serial twofold dilution assay; higher well number indicates higher activity
From the text: as §1

In the case of `O=C([O-])c1cc(NS(=O)(=O)c2cc(S(=O)(=O)Nc3cc(C(=O)[O-])c(C(=O)[O-])c(C(=O)[O-])c3)c3c(Cl)ccc(S(=O)(=O)Nc4cc(C(=O)[O-])c(C(=O)[O-])c(C(=O)[O-])c4)c3c2)cc(C(=O)[O-])c1C(=O)[O-].[Na+].[Na+].[Na+].[Na+].[Na+].[Na+].[Na+].[Na+].[Na+]` [5,5',5"-[(8-chloro-1,3,5-naphthalenetriyl)tris(sulfonylimino)]-tri-1,2,3-benzenetricarboxylic acid, nonasodium salt], the “Shunt Inhibition 036 Wells” value (shunt pathway) is reported as “+5 Wells”, the inhibition at 200 mg/kg ([1]; 0.5 h, blood sample 30 minutes after injection, read-out: In Vivo Activity (Guinea Pig) % Inhibition Intraperitoneal, 30 minutes) is reported as -75% and the inhibition at 200 mg/kg ([1]; 1 h, blood sample 60 minutes after injection, read-out: In Vivo Activity (Guinea Pig) % Inhibition Intraperitoneal, 60 minutes) is reported as -69%. For the same molecule, the inhibition at 200 mg/kg ([1]; 2 h, blood sample 120 minutes after injection, read-out: In Vivo Activity (Guinea Pig) % Inhibition Intraperitoneal, 120 minutes) was 75%, the “C-Late 035 Wells” value [2] was “+2 Wells” and the “Cl 026 Wells” value (activated human C1) was “+7 Wells”.
